Data: patent US20260285857A1, “BICYCLIC AND HETEROCYCLIC AMIDE COMPOUNDS” (priority 2024, published 2026)
Like-named read-outs stand apart in the source and are kept apart here.

System: immunoglobulin light chain protein WIL-FL T46L
Experiment: Differential scanning fluorimetry (thermal shift) assay
Assay type: binding
[1] = Table B, temperature shift [Tm]compound-[Tm]vehicle, recombinant WIL-FL T46L
[2] = Table A, temperature shift [Tm]compound-[Tm]vehicle, recombinant WIL-FL T46L

SMILES	DSF [1]	DSF [2]	other results
Cc1cc(N2CC[C@](C)(c3ccccc3)C2)cn2nc(C(=O)N3CC[C@H]4[C@@H]3CC(=O)N4c3cccc(C(=O)O)n3)nc12 [Compound 704, 6-((3aS,6aS)-4-(8-methyl-6-((R)-3-methyl-3-phenylpyrrolidin-1-yl)-[1,2,4]triazolo[1,5-a]pyridine-2-carbonyl)-2-oxohexahydropyrrolo[3,2-b]pyrrol-1(2H)-yl)picolinic acid]	***** (>2.5° C.=*****)	–	–
Cc1cc(N2CC[C@](C)(c3ccccc3)C2)cn2nc(C(=O)N3CCOC4(CNC4)C3)nc12 [Compound 177]	–	***** (>2.5° C.=*****)	–
COC(=O)CC1C2CN(C3CC4(CC(NC(=O)c5nc6c(C)cc(N7CC[C@](C)(c8ccccc8)C7)cn6n5)C4)C3)CC12 (stereo partly shown) [Compound 357]	–	***** (>2.5° C.=*****)	–
Cc1cc(N2CC[C@](C)(c3ccccc3)C2)cn2nc(C34CC(C(=O)O)(CO3)C4C(=O)O)nc12 (stereo partly drawn) [Compound 537, 1-(8-methyl-6-((R)-3-methyl-3-phenylpyrrolidin-1-yl)-[1,2,4]triazolo[1,5-a]pyridin-2-yl)-2-oxabicyclo[2.1.1]hexane-4,5-dicarboxylic acid]	**** (>1.5-2.5° C.=****)	–	–
CC(O)c1cc(N2CC[C@](C)(c3ccccc3)C2)cn2nc(C(=O)NC3CCN(c4cccc(C(=O)O)n4)CC3)nc12 (stereo partly shown) [Compound 342]	–	***** (>2.5° C.=*****)	–
Cc1cc(N2CC[C@](C)(c3ccccc3)C2)cn2nc(C(=O)NC3CCN(c4ccnc(-c5nnn[nH]5)c4)CC3)nc12 [Compound 284]	–	***** (>2.5° C.=*****)	–
Cc1cc(N2CC[C@](C)(c3ccccc3)C2)cn2nc(C(=O)N3CCC4(CCN4c4ccnc(C(=O)O)c4)C3)nc12 (stereo partly shown) [Compound 621]	***** (>2.5° C.=*****)	–	–
Cc1cc(N2CC[C@](C)(c3ccccc3)C2)cn2nc(C(=O)NC3CC4(C3)CN(C(=O)C3CCC(C(=O)O)O3)C4)nc12 (stereo partly drawn) [Compound 596, 5-[6-[[8-methyl-6-[(3R)-3-methyl-3-phenyl-pyrrolidin-1-yl]-[1,2,4]triazolo[1,5-a]pyridine-2-carbonyl]amino]-2-azaspiro[3.3]heptane-2-carbonyl]tetrahydrofuran-2-carboxylic acid]	***** (>2.5° C.=*****)	–	–
Cc1cc(N2CC[C@](C)(c3ccccc3)C2)cn2nc(C(=O)N[C@H]3C[C@]4(CCN(c5cccc(C(=O)O)n5)C4)C3)nc12 [Compound 623]	***** (>2.5° C.=*****)	–	–
Cc1cc(N2CC[C@](C)(c3ccccc3)C2)cn2nc(C(=O)N3CCn4c(nnc4-c4ccnc(C(=O)O)c4)C3)nc12 [Compound 407]	–	***** (>2.5° C.=*****)	–
Cc1cc(N2CCC(C)(c3ccccc3Cl)C2)cn2nc(C(=O)N3CC[C@@]4(CCN(c5cccc(C(=O)O)n5)C4)C3)nc12 (stereo partly shown) [Compound 417]	–	***** (>2.5° C.=*****)	–
Cc1cc(N2CC3(CC[C@@H]3c3ccccc3)C2)cn2nc(C(=O)N3CC[C@@]4(CCN(c5cccc(C(=O)[O-])n5)C4)C3)nc12.[Li+] [Compound 24B, lithium 6-((R)-7-(8-methyl-6-((R)-5-phenyl-2-azaspiro[3.3]heptan-2-yl)-[1,2,4]triazolo[1,5-a]pyridine-2-carbonyl)-2,7-diazaspiro[4.4]nonan-2-yl)picolinate]	–	***** (>2.5° C.=*****)	–
Cc1cc(N2CC[C@](C)(c3ccccc3)C2)cn2nc(C34CCC(N)(CO3)C4)nc12 (stereo partly shown) [Compound 66]	–	***** (>2.5° C.=*****)	–
Cc1cc(N2CC[C@](C)(c3cccc(F)c3)C2)cn2nc(C(=O)N3CCC(C)(O)C3)nc12 (stereo partly shown) [Compound 385]	–	***** (>2.5° C.=*****)	–
Cc1cc(N2CC[C@](C)(c3ccccc3)C2)cn2nc(C34CC(NC(=O)C5(C(=O)O)CCC5)(CO3)C4)nc12 [Compound 467]	***** (>2.5° C.=*****)	–	–
C[C@@]1(c2ccccc2)CCN(c2cc(CO)c3nc(C(=O)N4CC5CN(c6cccc(C(=O)O)n6)CC5C4)nn3c2)C1 (stereo partly shown) [Compound 347]	–	***** (>2.5° C.=*****)	–
Cc1cc(N2CC3(CC[C@H]3c3ccccc3)C2)cn2nc(C(=O)N3CC[C@@]4(CCN(c5cccc(C(=O)O)n5)C4)C3)nc12 [Compound 24A, Lithium 6-((R)-7-(8-methyl-6-((S)-5-phenyl-2-azaspiro[3.3]heptan-2-yl)-[1,2,4]triazolo[1,5-a]pyridine-2-carbonyl)-2,7-diazaspiro[4.4]nonan-2-yl)picolinate]	–	***** (>2.5° C.=*****)	–
CCS(=O)(=O)Nc1n[nH]c(C2C3COC2(c2nc4c(C)cc(N5CC[C@](C)(c6ccccc6)C5)cn4n2)C3)n1 (stereo partly shown) [Compound 93]	–	***** (>2.5° C.=*****)	–
COC(=O)c1n[nH]c(N2CCC3(CCN(C(=O)c4nc5c(C)cc(N6CC[C@](C)(c7ccccc7)C6)cn5n4)C3)C2)n1 (stereo partly shown) [Compound 233]	–	***** (>2.5° C.=*****)	–
CNC(=O)c1nc2c(CO)cc(N3CC[C@](C)(c4ccccc4)C3)cn2n1 [Compound 351]	–	***** (>2.5° C.=*****)	–
Cc1cc(N2CC[C@](C)(c3ccccc3)C2)cn2nc(C(=O)N3C[C@H]4C[C@@H]3C4C(=O)O)nc12 (stereo partly shown) [Compound 210]	–	***** (>2.5° C.=*****)	–
Cc1cc(N2CC[C@](C)(c3ccccc3)C2)cn2nc(C34CC(CO3)C4Cc3nnn[nH]3)nc12 (stereo partly shown) [Compound 504]	***** (>2.5° C.=*****)	–	–

SMILES	DSF [1]	DSF [2]	other results
Cc1cc(N2CC[C@](C)(c3ccccc3)C2)cn2nc(C(=O)NC3COCC3(C)C(=O)O)nc12 (stereo partly shown) [Compound 180]	–	***** (>2.5° C.=*****)	–
Cc1cc(N2CC[C@@](CO)(c3ccccc3)C2)cn2nc(C(=O)N3CC[C@@]4(CCN(c5cccc(C(=O)O)n5)C4)C3)nc12 [Compound 331]	–	** (>0.5-1 °C =**)	–
Cc1cc(N2CC[C@](C)(c3ccccc3)C2)cn2nc(C(=O)NC3CC4(CCN(C(=O)CC(C)(O)C(=O)O)C4)C3)nc12 (stereo partly drawn) [Compound 673, 2-hydroxy-2-methyl-4-(2-(8-methyl-6-((R)-3-methyl-3-phenylpyrrolidin-1-yl)-[1,2,4]triazolo[1,5-a]pyridine-2-carboxamido)-6-azaspiro[3.4]octan-6-yl)-4-oxobutanoic acid]	***** (>2.5° C.=*****)	–	–
Cc1cc(N2CC[C@](C)(c3ccccc3)C2)cn2nc(C(=O)NC3CC4(CCC4N4CC5C(C4)C5C(=O)O)C3)nc12 (stereo partly drawn) [Compound 31, 3-[2-[[8-methyl-6-[(3R)-3-methyl-3-phenyl-pyrrolidin-1-yl]-[1,2,4]triazolo[1,5-a]pyridine-2-carbonyl]amino]spiro[3.3]heptan-7-yl]-3-azabicyclo[3.1.0]hexane-6-carboxylic acid]	–	***** (>2.5° C.=*****)	–
Cc1cc(N2CC[C@](C)(c3ccccc3)C2)cn2nc(C34CC(CO)(CO3)C4N3CC4(COC4)NC3=O)nc12 (stereo partly shown) [Compound 577]	***** (>2.5° C.=*****)	–	–
Cc1cc(N2CC[C@](C)(c3ccccc3)C2)cn2nc(C(=O)NC3CCN(c4ncc(S(C)(=N)=O)cn4)C3)nc12 (stereo partly shown) [Compound 237]	–	***** (>2.5° C.=*****)	–
Cc1cc(N2CC[C@](C)(c3ccccc3)C2)cn2nc(C34CC(CO3)C4Cn3ncnc3C)nc12 (stereo partly shown) [Compound 82]	–	***** (>2.5° C.=*****)	–
Cc1cc(N2CC[C@](C)(c3ccccc3)C2)cn2nc(C(=O)N3CCc4c(nnn4C4CCC(C(=O)O)C4)C3)nc12 (stereo partly shown) [Compound 638]	***** (>2.5° C.=*****)	–	–
Cc1cc(N2CC[C@](C)(c3ccccc3)C2)cn2nc(C(=O)NC3CC4(C3)CN(C(=O)C35CCC(C(=O)O)(CC3)OC5)C4)nc12 [Compound 678, 4-[6-[[8-methyl-6-[(3R)-3-methyl-3-phenyl-pyrrolidin-1-yl]-[1,2,4]triazolo[1,5-a]pyridine-2-carbonyl]amino]-2-azaspiro[3.3]heptane-2-carbonyl]-2-oxabicyclo[2.2.2]octane-1-carboxylic acid]	***** (>2.5° C.=*****)	–	–
Cc1cc(N2CC[C@](C)(c3ccccc3)C2)cn2nc(C34CC(CO3)C4c3nc(NC(=O)c4cccc(C(=O)O)n4)n[nH]3)nc12 (stereo partly shown) [Compound 549]	***** (>2.5° C.=*****)	–	–
CNC(=O)c1nc2c(C)cc(N3CC[C@](C)(c4cccc(F)c4)C3)cn2n1 [Compound 32]	–	–	DSF: ***** (key: 0-0.5° C.=*; >0.5-1 °C =**; >1-1.5° C.=***; >1.5-2.5° C.=****; >2.5° C.=*****)
CNC(=O)c1nc2c(C)cc(N3CCC(C)(c4ccccc4F)C3)cn2n1 (stereo not shown) [Compound 425]	–	***** (>2.5° C.=*****)	–
Cc1cc(N2CC[C@](C)(c3ccccc3)C2)cn2nc(C(=O)NC3CC[C@]4(CCN(c5cccc(C(=O)O)n5)C4)C3)nc12 (mixture of isomers) [Compound 633, 6-[rac-(5S)-8-[[8-methyl-6-[rac-(3R)-3-methyl-3-phenyl-pyrrolidin-1-yl]-[1,2,4]triazolo[1,5-a]pyridine-2-carbonyl]amino]-2-azaspiro[4.4]nonan-2-yl]pyridine-2-carboxylic acid]	***** (>2.5° C.=*****)	–	–
Cc1cc(N2CC[C@](C)(c3ccccc3)C2)cn2nc(C34CC(NC(=O)Nc5cccc(C(=O)O)n5)(CO3)C4)nc12 [Compound 454]	***** (>2.5° C.=*****)	–	–
Cc1cc(N2CC[C@](C)(c3ccccc3)C2)cn2nc(C34CC(Nc5cccc(C(=O)O)n5)(CO3)C4)nc12 [Compound 465, (R)-6-((1-(8-methyl-6-(3-methyl-3-phenylpyrrolidin-1-yl)-[1,2,4]triazolo[1,5-a]pyridin-2-yl)-2-oxabicyclo[2.1.1]hexan-4-yl)amino)picolinic acid]	***** (>2.5° C.=*****)	–	–
Cc1cc(N2CC[C@](C)(c3ccccc3)C2)cn2nc(C(=O)NC3CC4(C3)CC(N3CC5C(C3)C5c3nn[nH]n3)C4)nc12 (stereo partly shown) [Compound 368]	–	***** (>2.5° C.=*****)	–
Cc1cc(N2CC[C@](C)(c3ccccc3)C2)cn2nc(C34CC(CO)(CO3)C4c3nc(NS(=O)(=O)CC(C)(C)C(=O)O)n[nH]3)nc12 (stereo partly shown) [Compound 574]	***** (>2.5° C.=*****)	–	–
COc1cccc([C@@]2(C)CCN(c3cc(C)c4nc(C(=O)N5CC[C@@]6(CCN(c7cccc(C(=O)O)n7)C6)C5)nn4c3)C2)c1 [Compound 409]	–	***** (>2.5° C.=*****)	–
Cc1nc([C@@H]2[C@]3(C(C)(C)O)CO[C@@]2(c2nc4c(C)cc(N5CC[C@](C)(c6ccccc6)C5)cn4n2)C3)n[nH]1 [Compound 542]	***** (>2.5° C.=*****)	–	–
COC(C)(C)CNC(=O)c1nc2c(C)cc(N3CC[C@](C)(c4ccccc4)C3)cn2n1 [Compound 107]	–	***** (>2.5° C.=*****)	–
Cc1cc(N2CC[C@](C)(c3ccccc3)C2)cn2nc(C34CC(C(=O)NC(C)C)(CO3)C4)nc12 [Compound 443]	***** (>2.5° C.=*****)	–	–
